Assay [1] concerns gpASNase3 (guinea pig L-asparaginase type III). The assay is described as follows: NADH-coupled spectrophotometric assay. The assay is classed as biochemical, Cavia porcellus. Particulars: glycine-activated (cleaved) enzyme; Tris pH 7.5, 37 °C.
Assay [2] has as its target cleaved gpASNase3 protomer (α- and β-subunit), Asp-bound (Cavia porcellus (guinea pig)). The assay is described as follows: crystal structure.

As to `N[C@@H](CC(=O)N[C@@H](Cc1ccccc1)C(=O)O)C(=O)O` [β-L-Asp-L-Phe], in assay [1], the Km (in general, the substrate concentration at which the rate is half of its maximum) came to 410 ± 30 µM.
Same read-out and setting: as for `NC(=O)C[C@H](N)C(=O)O` [L-Asn], the figure is 2240 ± 140 µM.
Consider “cleaved gpASNase3 protomer (α- and β-subunit), Asp-bound (complex)”, for which, in assay [2], the stoichiometry N (as a rule, a count of units in the complex or per binding partner) came to 2.

The values above are taken from paper PMC4004260 (Biochemistry, 2014).
